Legend:
[1] = target: T1, recombinant human ALK5 (TGF-βR1) protein (Homo sapiens, UniProt P36897); assay: Biochemical ALK5 (TGF-βR1) assay to measure pKi (LANCE Ultra ULight kinase assay); conditions: apparent pKi from pIC50 by Cheng-Prusoff, read-out: ALK5 pKi (converted)
T1 construct: purchased Life Technologies PR9075A
T1 sequence (P36897 34-503): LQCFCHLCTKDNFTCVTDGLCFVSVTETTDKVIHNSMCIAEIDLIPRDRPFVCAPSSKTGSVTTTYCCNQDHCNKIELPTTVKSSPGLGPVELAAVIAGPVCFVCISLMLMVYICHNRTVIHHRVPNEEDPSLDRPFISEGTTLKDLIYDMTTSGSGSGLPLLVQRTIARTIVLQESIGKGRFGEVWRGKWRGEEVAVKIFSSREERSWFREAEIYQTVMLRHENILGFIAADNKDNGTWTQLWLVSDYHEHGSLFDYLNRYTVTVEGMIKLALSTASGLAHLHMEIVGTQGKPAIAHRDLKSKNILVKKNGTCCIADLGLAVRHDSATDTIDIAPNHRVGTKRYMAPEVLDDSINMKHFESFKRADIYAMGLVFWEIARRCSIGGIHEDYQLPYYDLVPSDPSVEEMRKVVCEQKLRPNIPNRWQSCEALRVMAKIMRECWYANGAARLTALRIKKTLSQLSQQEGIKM
Description: The assays were performed in a 384-well plate (24 columns×16 wells/rows). An Echo® 550 Liquid Handler (Labcyte) was used to prepare various intermediate concentrations of compounds of the present disclosure in 100% DMSO. From the intermediate concentrations, a range of concentrations (from 10 μM to 25 pM corresponding to volumes up to 105 nL) were prepared and ejected into a final assay plate to be used to create individual dose response curves for each of the subject compounds. To a separate column within the assay plate, 105 nL of DMSO in each well was used to establish a maximum assay signal.
With a multidrop dispenser, 8 μL of enzyme mixture (1.25× final) was added to each well. […] The plate was then sealed with an adhesive seal and allowed to equilibrate for 60 minutes at room temperature.
Next, 2 μL of 125 μM ATP (5× final, 125 μM ATP prepared in assay buffer with 2 mM DTT) was added to the incubated mixtures, covered with a MicroClime® Environmental Lid (Product No. LLS-0310, Labcyte) and immediately transferred to 37° C. The reactions were allowed to proceed at 37° C. for 60 minutes before terminating with the addition of 10 μL of detection antibody (LANCE® (lanthanide chelate excite) Ultra Europium-anti-phospo-DNA Topoisomerase 2-alpha (Thr1342)) in detection mixture (12 mM EDTA, 4 nM detection antibody prepared in detection buffer (50 mM Tris-HCl, 150 mM NaCl, 0.5% BSA (Fraction V), pH 7.0)) at room temperature. The plate was then read on a Perkin Elmer EnVision Plate Reader using europium specific reader settings with excitation and emission wavelengths set to 320 or 340 nm and 665 nm, respectively.
For dose-response analyses, percent inhibition versus compound concentrations were plotted, and pIC50 values were determined from a 4-parameter robust fit model with GraphPad Prism V5 Software (GraphPad Software, Inc., La Jolla, Calif.). This model obtains pIC50 values by fitting the sigmoidal dose-response (variable slope) equation to the data. Results were expressed as pIC50 (negative logarithm of IC50) and subsequently converted to pKi (negative logarithm of dissociate constant, K) using the Cheng-Prusoff equation. The higher the value of pKi (lower value of Ki), the greater the inhibition of ALK5 activity.

[2] = tested on: TGF-β-stimulated SMAD3 phosphorylation in BEAS-2B cells; assay: Cellular ALK5 potency assay, inhibition of TGF-β stimulated pSMAD3 formation in BEAS-2B cells; format: cell-based; conditions: Homo sapiens; inhibition of TGF-β stimulated pSMAD3 formation, BEAS-2B cells; read-out: BEAS2B pIC50 (converted)
Description: The potency of compounds of the present disclosure for inhibition of TGF-β-stimulated SMAD3 phosphorylation was measured in BEAS-2B cells, a human lung epithelial cell line. TGF-β signals through activin receptor-like kinase 5 (ALK5) immediately prior to SMAD3 phosphorylation.
BEAS-2B cells were grown using 50% DMEM (Life Technologies) and 50% F-12 (Life Technologies) media, supplemented with 10% Fetal Bovine Serum (ATCC), 25 mM HEPES (Life Technologies), and 1× Pen-Strep (Life Technologies). Cells were cultured in a humidified incubator set at 37° C., 5% CO2, and trypsonized using 0.25% Trypsin with 0.5% polyvinylpyrrolidone (PVP).
For the assay, BEAS-2B cells were seeded at 7,500 cells/well (25 μL/well) in a 384-well plate and cultured overnight. Before dosing, growth media was aspirated and the wells were rinsed with HBSS Buffer (HBSS with Calcium and Magnesium, Life Technologies) supplemented with 25 mM HEPES (Life Technologies) and 1% Bovine Serum Albumin (Roche). Compounds were serially diluted in DMSO, then further diluted with supplemented HBSS Buffer (50 μL/well) to create a compound plate 3× of the final assay concentration, at 0.3% DMSO. The diluted compounds were then added to the cells (8 μL/well) and incubated at 37° C., 5% CO2 for 1 hour. After the compound incubation, TGF-β (R&D Systems) reconstituted in supplemented HBSS Buffer was added to the cells ([…], final concentration 10 ng/mL) and incubated for a further 30 minutes, after which the cells were immediately lysed with AlphaLISA lysis buffer (PerkinElmer). AlphaLISA Acceptor and Detector beads (PerkinElmer) were added 2 hours apart, then incubated overnight to be read the next day. The potency of the compound was determined through analysis of dose-dependent quantified changes in pSMAD3 signal from baseline (non-compound treated TGF-β stimulated cells). Data are expressed as pIC50 (negative decadic logarithm IC50) values.

Row | SMILES | Ki [1] [nM] | IC50 [2] [nM]
1 | Cc1cccc(-c2[nH]cnc2-c2ccc3ncc(C4=CC[C@@H](NC(=O)[C@@H]5CCCN5)CC4)cc3c2)n1 [Compound 775, (2S)-N-[(1S)-4-[6-[5-(6-methyl-2-pyridyl)-1H-imidazol-4-yl]-3-quinolyl]cyclohex-3-en-1-yl]pyrrolidine-2-carboxamide] | 0.0398 to 0.316 | 25.1 to 158
2 | COC(=O)c1ccnc2ccc(-c3cn[nH]c3-c3cccc(C)n3)cc12 [Compound 1061, methyl 6-[5-(6-methyl-2-pyridyl)-1H-pyrazol-4-yl]quinoline-4-carboxylate] | 0.0398 to 0.316 | 25.1 to 158
3 | Cc1cccc(-c2[nH]cnc2-c2ccc3ncc(-c4nc(C(=O)O[C@H]5CCNC5)cs4)cc3c2)n1 [Compound 748, (S)-pyrrolidin-3-yl 2-(6-(5-(6-methylpyridin-2-yl)-1H-imidazol-4-yl)quinolin-3-yl)thiazole-4-carboxylate] | 0.0398 to 0.316 | 25.1 to 158
4 | Cc1cccc(-c2[nH]ncc2-c2ccc3ncc(C(=O)O[C@H]4CC[C@@](C)(N)CC4)cc3c2)n1 [Compound 1177, (4-amino-4-methyl-cyclohexyl) 6-[5-(6-methyl-2-pyridyl)-1H-pyrazol-4-yl]quinoline-3-carboxylate] | 0.0398 to 0.316 | 25.1 to 158
5 | Cc1cccc(-c2[nH]cnc2-c2ccc3ncc(-c4ccc(C(=O)O[C@H]5CCN(C)C5)cc4)cc3c2)n1 [Compound 545, [(3S)-1-methylpyrrolidin-3-yl] 4-[6-[5-(6-methyl-2-pyridyl)-1H-imidazol-4-yl]-3-quinolyl]benzoate] | 0.0398 to 0.316 | 25.1 to 158
6 | Cc1cccc(-c2n[nH]cc2-c2ccc3nccc(C4CO[C@H]5CNC[C@@H]5N4)c3n2)n1 (mixture of isomers) [Compound 861, rac-(4aS,7aS)-3-[6-[3-(6-methyl-2-pyridyl)-1H-pyrazol-4-yl]-1,5-naphthyridin-4-yl]-2,3,4,4a,5,6,7,7a-octahydropyrrolo[3,4-b][1,4]oxazine] | 3.98 to 31.6 | 200 to 1260
7 | Cc1cccc(-c2[nH]cnc2-c2ccc3ncc(NCCN4CC5(CC(N)C5)C4)cc3c2)n1 [Compound 715, N-[2-(6-amino-2-azaspiro[3.3]heptan-2-yl)ethyl]-6-[5-(6-methyl-2-pyridyl)-1H-imidazol-4-yl]quinolin-3-amine] | 0.0398 to 0.316 | 200 to 1260
8 | COC(=O)CC1CN(c2cnc3ccc(-c4nc[nH]c4-c4cccc(C)n4)cc3c2)CCN1 (stereo not shown) [Compound 60, methyl 2-(4-(6-(5-(6-methylpyridin-2-yl)-1H-imidazol-4-yl)quinolin-3-yl)piperazin-2-yl)acetate] | 0.0398 to 0.316 | 25.1 to 158
9 | Cc1cccc(-c2[nH]ncc2-c2ccc3ncc(C(=O)N(C)CCN4CCOCC4)cc3n2)n1 [Compound 182, N-methyl-6-[5-(6-methyl-2-pyridyl)-1H-pyrazol-4-yl]-N-(2-morpholinoethyl)-1,5-naphthyridine-3-carboxamide] | 3.98 to 31.6 | 200 to 1260
10 | Cc1cccc(-c2[nH]cnc2-c2ccc3ncc(N4CC[C@H](N)C4)cc3c2)n1 [Compound 208, (3S)-1-[6-[5-(6-methyl-2-pyridyl)-1H-imidazol-4-yl]-3-quinolyl]pyrrolidin-3-amine] | 0.0398 to 0.316 | < 20

More lines, main results first:

Row | Ki [1] [nM] | SMILES | IC50 [2] [nM]
11 | 0.0398 to 0.316 | Cc1cccc(-c2n[nH]cc2-c2ccc3ncc(-c4cn5c(n4)CN(C4CCNC4)CC5)cc3n2)n1 (stereo not shown) [Compound 440, 2-[3-(6-methyl-2-pyridyl)-1H-pyrazol-4-yl]-7-(7-pyrrolidin-3-yl-6,8-dihydro-5H-imidazo[1,2-a]pyrazin-2-yl)-1,5-naphthyridine] | 200 to 1260
12 | < 0.0316 | Cc1cccc(-c2n[nH]cc2-c2ccc3ncc(N4CCN(CCN(C)C)CC4)cc3n2)n1 [Compound 292, N,N-dimethyl-2-[4-[6-[3-(6-methyl-2-pyridyl)-1H-pyrazol-4-yl]-1,5-naphthyridin-3-yl]piperazin-1-yl]ethanamine] | 25.1 to 158
13 | 0.0398 to 0.316 | Cc1cccc(-c2[nH]cnc2-c2ccc3ncc(-c4cn5c(n4)CNCC5)cc3c2)n1 [Compound 645, 6-[5-(6-methyl-2-pyridyl)-1H-imidazol-4-yl]-3-(5,6,7,8-tetrahydroimidazo[1,2-a]pyrazin-2-yl)quinoline] | 200 to 1260
14 | < 0.0316 | Cc1cccc(-c2n[nH]cc2-c2ccc3ncc(-c4nc(CO)co4)cc3n2)n1 [Compound 32, [2-[6-[3-(6-methyl-2-pyridyl)-1H-pyrazol-4-yl]-1,5-naphthyridin-3-yl]oxazol-4-yl]methanol] | 25.1 to 158
15 | 0.0398 to 0.316 | Cc1nc(-c2nc3ccccn3c2-c2ccc3ncc(N4CCNCC4)cc3c2)ccc1F [Compound 457, 6-[2-(5-fluoro-6-methyl-2-pyridyl)imidazo[1,2-a]pyridin-3-yl]-3-piperazin-1-yl-quinoline] | 25.1 to 158
16 | 0.0398 to 0.316 | Cc1cccc(-c2n[nH]cc2-c2ccc3ncc(N4CCC[C@H](N(C)C)C4)cc3n2)n1 [Compound 492, (3S)-N,N-dimethyl-1-[6-[3-(6-methyl-2-pyridyl)-1H-pyrazol-4-yl]-1,5-naphthyridin-3-yl]piperidin-3-amine] | 25.1 to 158
17 | < 0.0316 | Cc1cccc(-c2n[nH]cc2-c2ccc3ncc(N4CC[C@@H](N5CCCCC5)C4)cc3n2)n1 [Compound 542, 2-[3-(6-methyl-2-pyridyl)-1H-pyrazol-4-yl]-7-[(3R)-3-(1-piperidyl)pyrrolidin-1-yl]-1,5-naphthyridine] | 25.1 to 158
18 | 0.0398 to 0.316 | Cc1nc(-c2n[nH]cc2-c2ccc3ncc(-c4cnn(CC5CC(N)C5)c4)cc3n2)ccc1F (stereo not shown) [Compound 455, 3-[[4-[6-[3-(5-fluoro-6-methyl-2-pyridyl)-1H-pyrazol-4-yl]-1,5-naphthyridin-3-yl]pyrazol-1-yl]methyl]cyclobutanamine] | 25.1 to 158
19 | < 0.0316 | Cc1cccc(-c2n[nH]cc2-c2ccc3ncc(N4CCC(O)CC4)cc3n2)n1 [Compound 282, 1-[6-[3-(6-methyl-2-pyridyl)-1H-pyrazol-4-yl]-1,5-naphthyridin-3-yl]piperidin-4-ol] | < 20
20 | 0.398 to 3.16 | Cc1cccc(-c2n[nH]cc2-c2ccc3ncc(-c4cnc5n4CCNC5)cc3c2)n1 [Compound 538, 6-[3-(6-methyl-2-pyridyl)-1H-pyrazol-4-yl]-3-(5,6,7,8-tetrahydroimidazo[1,2-a]pyrazin-3-yl)quinoline] | 25.1 to 158

— patent US11590116B2 (THERAVANCE BIOPHARMA R&D IP, LLC, priority 2019, dated 2023)
